Test results taken from ChEMBL document CHEMBL3885881, “DrugMatrix”.
Values joined by “and” are separate entries in the source; they are usually repeats but may differ in a detail not shown here. Equal entries are not always repeated.

Species: Rattus norvegicus
Assay: DrugMatrix - Regimen: Daily Repeat
Format: toxicity, organism-based, Sprague-Dawley
Design: regimen Daily Repeat, gender Male, age 6-8 weeks
Details: in vivo; for ABSOLUTE BASOPHIL / ABSOLUTE EOSINOPHIL / ABSOLUTE LYMPHOCYTE / ABSOLUTE MONOCYTE / ABSOLUTE SEGMENTED NEUTROPHIL / HEMOGLOBIN / MEAN CORPUSCULAR HEMOGLOBIN / MEAN CORPUSCULAR VOLUME / BASOPHIL / EOSINOPHIL / ERYTHROCYTE COUNT / HEMATOCRIT / LEUKOCYTE COUNT / LYMPHOCYTE / MEAN CORPUSCULAR HEMOGLOBIN CONCENTRATION / MONOCYTE / NEUTROPHIL / PLATELET COUNT / NUCLEATED RED BLOOD CELLS: tissue Blood
[1] = ip, 40 mg/kg, 120 h, tissue Plasma, route intraperitoneal, dose level High, time 5 day, vehicle 100 % SALINE
[2] = ip, 40 mg/kg, […], route intraperitoneal, dose level High, time 14 day, vehicle 100 % SALINE
[3] = ip, 40 mg/kg, […], route intraperitoneal, dose level High, time 28 day, vehicle 100 % SALINE
[4] = ip, 40 mg/kg, […], tissue Plasma, route intraperitoneal, dose level High, time 14 day, vehicle 100 % SALINE
[5] = ip, 40 mg/kg, […], tissue Plasma, route intraperitoneal, dose level High, time 28 day, vehicle 100 % SALINE
[6] = sc, 34 mg/kg, 72 h, route subcutaneous, dose level Low, time 3 day, […]
[7] = sc, 34 mg/kg, 72 h, tissue Plasma, route subcutaneous, dose level Low, time 3 day, […]
[8] = sc, 34 mg/kg, 120 h, route subcutaneous, dose level Low, time 5 day, […]
[9] = sc, 34 mg/kg, 120 h, tissue Plasma, route subcutaneous, dose level Low, time 5 day, […]

GENTAMICIN
LIPASE [1]: 13.6 u/L and 7.25 u/L
PHOSPHORUS [1]: 12.05 mg/dL
POTASSIUM [1]: 5.95 MEQ/L
SODIUM [1]: 150.75 MEQ/L
TOTAL BILIRUBIN [1]: 0.18 mg/dL and 0.33 mg/dL
TOTAL PROTEIN [1]: 5.74 G/DL and 6.48 G/DL
URIC ACID [1]: 0.96 mg/dL
ABSOLUTE BASOPHIL [2]: 72 cells/µL
ABSOLUTE EOSINOPHIL [2]: 92 cells/µL
ABSOLUTE LYMPHOCYTE [2]: 8980 cells/µL
ABSOLUTE MONOCYTE [2]: 190 cells/µL
ABSOLUTE SEGMENTED NEUTROPHIL [2]: 1000 cells/µL
HEMOGLOBIN [2]: 15.3 G/DL
MEAN CORPUSCULAR HEMOGLOBIN [2]: 19.4 pg
MEAN CORPUSCULAR VOLUME [2]: 59.54 fL
ABSOLUTE BASOPHIL [3]: 99 cells/µL
ABSOLUTE EOSINOPHIL [3]: 110 cells/µL
ABSOLUTE LYMPHOCYTE [3]: 11600 cells/µL
ABSOLUTE MONOCYTE [3]: 260 cells/µL
ABSOLUTE SEGMENTED NEUTROPHIL [3]: 1950 cells/µL
BASOPHIL [3]: 0.7%
EOSINOPHIL [3]: 0.81%
ERYTHROCYTE COUNT [3]: 8.29 x10E6/uL
HEMATOCRIT [3]: 46.05%
HEMOGLOBIN [3]: 15.27 G/DL
LEUKOCYTE COUNT [3]: 14.13 x10E3/uL
LYMPHOCYTE [3]: 82.22%
MEAN CORPUSCULAR HEMOGLOBIN [3]: 18.44 pg
MEAN CORPUSCULAR HEMOGLOBIN CONCENTRATION [3]: 33.17 G/DL
MEAN CORPUSCULAR VOLUME [3]: 55.59 fL
MONOCYTE [3]: 1.82%
NEUTROPHIL [3]: 14.01%
PLATELET COUNT [3]: 1416.3 x10E3/uL
CARBON DIOXIDE [4]: 25.75 mmol/L
CHLORIDE [4]: 107 MEQ/L
SODIUM [4]: 150 MEQ/L
ALANINE AMINOTRANSFERASE [5]: 32.3 u/L
ALBUMIN [5]: 3.62 G/DL
ALKALINE PHOSPHATASE [5]: 139.3 u/L
ASPARTATE AMINOTRANSFERASE [5]: 96 u/L
BLOOD UREA NITROGEN [5]: 14.9 mg/dL
CHOLESTEROL [5]: 65.3 mg/dL
CREATINE PHOSPHOKINASE [5]: 320.4 u/L
CREATININE [5]: 0.65 mg/dL
LACTATE DEHYDROGENASE [5]: 119.4 u/L
LIPASE [5]: 11 u/L
PHOSPHORUS [5]: 9.46 mg/dL
POTASSIUM [5]: 6.33 MEQ/L
TOTAL BILIRUBIN [5]: 0.17 mg/dL
TOTAL PROTEIN [5]: 6.66 G/DL
URIC ACID [5]: 1.24 mg/dL
ABSOLUTE BASOPHIL [6]: 0 CELLS/uL
ABSOLUTE EOSINOPHIL [6]: 60.67 CELLS/uL
ABSOLUTE LYMPHOCYTE [6]: 14515.67 CELLS/uL
ABSOLUTE MONOCYTE [6]: 63 CELLS/uL
ABSOLUTE SEGMENTED NEUTROPHIL [6]: 1227.33 CELLS/uL
BASOPHIL [6]: 0%
EOSINOPHIL [6]: 0.33%
ERYTHROCYTE COUNT [6]: 5.19 x10E6/uL
HEMATOCRIT [6]: 32.97%
HEMOGLOBIN [6]: 12.73 G/DL
LEUKOCYTE COUNT [6]: 15.87 x10E3/uL
LYMPHOCYTE [6]: 91.67%
MEAN CORPUSCULAR HEMOGLOBIN [6]: 24.57 pg
MEAN CORPUSCULAR HEMOGLOBIN CONCENTRATION [6]: 38.63 G/DL
MEAN CORPUSCULAR VOLUME [6]: 63.57 fL
MONOCYTE [6]: 0.33%
NEUTROPHIL [6]: 7.67%
NUCLEATED RED BLOOD CELLS [6]: 0 /100WBC
PLATELET COUNT [6]: 1222.33 x10E3/uL
ALANINE AMINOTRANSFERASE [7]: 55.67 u/L
ALBUMIN [7]: 4 G/DL
ALKALINE PHOSPHATASE [7]: 327 u/L
ASPARTATE AMINOTRANSFERASE [7]: 105 u/L
BLOOD UREA NITROGEN [7]: 14.67 mg/dL
CARBON DIOXIDE [7]: 20.67 mmol/L
CHLORIDE [7]: 107.33 MEQ/L
CHOLESTEROL [7]: 82 mg/dL
CREATINE PHOSPHOKINASE [7]: 574.67 u/L
CREATININE [7]: 0.29 mg/dL
GLUCOSE [7]: 196.33 mg/dL
LACTATE DEHYDROGENASE [7]: 268.67 u/L
LIPASE [7]: 11.33 u/L
POTASSIUM [7]: 6.59 MEQ/L
SODIUM [7]: 147.27 MEQ/L
TOTAL BILIRUBIN [7]: 0.2 mg/dL
TOTAL PROTEIN [7]: 5.7 G/DL
ABSOLUTE BASOPHIL [8]: 0 CELLS/uL
ABSOLUTE EOSINOPHIL [8]: 0 CELLS/uL
ABSOLUTE LYMPHOCYTE [8]: 14029.67 CELLS/uL
ABSOLUTE MONOCYTE [8]: 90.67 CELLS/uL
ABSOLUTE SEGMENTED NEUTROPHIL [8]: 1246.33 CELLS/uL
BASOPHIL [8]: 0%
EOSINOPHIL [8]: 0%
ERYTHROCYTE COUNT [8]: 5.74 x10E6/uL
HEMOGLOBIN [8]: 13.5 G/DL
LEUKOCYTE COUNT [8]: 15.37 x10E3/uL
LYMPHOCYTE [8]: 91%
MEAN CORPUSCULAR HEMOGLOBIN [8]: 23.57 pg
MEAN CORPUSCULAR HEMOGLOBIN CONCENTRATION [8]: 36.03 G/DL
MONOCYTE [8]: 0.67%
NEUTROPHIL [8]: 8.33%
NUCLEATED RED BLOOD CELLS [8]: 0 /100WBC
PLATELET COUNT [8]: 1310.33 x10E3/uL
ALANINE AMINOTRANSFERASE [9]: 46.33 u/L
ALBUMIN [9]: 4.2 G/DL
ALKALINE PHOSPHATASE [9]: 391.33 u/L
ASPARTATE AMINOTRANSFERASE [9]: 95.33 u/L
CARBON DIOXIDE [9]: 24 mmol/L
CHLORIDE [9]: 106.67 MEQ/L
CHOLESTEROL [9]: 71 mg/dL
CREATINE PHOSPHOKINASE [9]: 308.33 u/L
CREATININE [9]: 0.18 mg/dL
LACTATE DEHYDROGENASE [9]: 196.33 u/L
PHOSPHORUS [9]: 13.37 mg/dL
POTASSIUM [9]: 7.64 MEQ/L
TOTAL BILIRUBIN [9]: 0.2 mg/dL
